US11464750B2, “Anticancer agent and use thereof” (priority 2017, dated 2022)

Key:
[1] = test system: BALL-1 cells; test: MTT assay, BALL-1 cells; assay type: cell-based, human; conditions: 0.01, 0.05, 0.1, 0.5, and 1 μM, 48 hours
Protocol: BALL-1 cells of a cell line derived from […], TKG0210 cells of a human myeloid leukemia cell line, and TKG0377 cells of a human T cell acute leukemia cell line were seeded in 96-well plates at 2.5×10^4 cells/well/100 μL, and cultured for 48 hours in the presence of 3EZ,20Ac-ingenol at final concentrations of 0 (control), 0.5, 1, 5, and 10 μM. Subsequently, cell proliferation was examined by MTT assay using a Cell Proliferation Kit 1 (Roche Applied Science).
BALL-1 cells were exposed to 3EZ,20Ac-ingenol, 3EE,20Ac-ingenol, 20Ac-ingenol, and ingenol at concentrations of 0.01, 0.05, 0.1, 0.5, and 1 μM for 48 hours. Thereafter, cell proliferation was examined by MTT assay. Cells that were not exposed to the chemical were used as controls. The chemical formulas of 3EZ,20Ac-ingenol, 3EE,20Ac-ingenol, and 20Ac-ingenol are as described above. The chemical formula of ingenol is shown in the following Formula (7).

[2] = test system: BALL-1 cells; test: Cell Death Detection ELISA (histone-binding DNA fragmentation), BALL-1; assay type: cell-based, human; conditions: 0.5 μM, 72 hours
Protocol: The induction of apoptosis by 3EZ,20Ac-ingenol treatment was examined by detecting histone-binding DNA fragmentation in the cytoplasm using a Cell Death Detection ELISA kit (Roche Applied Science).
Specifically, BALL-1 cells, TKG0210 cells, and TKG0377 cells were inserted into tubes at 5×10^4 cells/well/200 μL, and incubated for 6, 12, 24, 48, and 72 hours in the presence of 3EZ,20Ac-ingenol at a final concentration of 0.5 μM. Subsequently, the respective cells were lysed in a lysis buffer. Subsequently, the supernatant of cell debris of the respective cells was collected and transferred to an ELISA plate, and an absorbance at a wavelength of 405 nm was measured to measure the induction of apoptosis.

[3] = test system: Panc-1 cells; test: Cell Death Detection ELISA, Panc-1; assay type: cell-based, human; conditions: 3 μM
Protocol: The induction of apoptosis by 3EZ,20Ac-ingenol treatment was examined by detecting histone-binding DNA fragmentation in the cytoplasm using a Cell Death Detection […] kit (Roche Applied Science).
Specifically, Panc-1 cells were inserted into tubes at 5×10^3 cells/well/100 μL, and incubated for 6, 12, 24, 48, and 72 hours in the presence of 3EZ,20Ac-ingenol at a final concentration of 3 μM. Subsequently, the respective cells were lysed in a lysis buffer. Subsequently, the supernatant of cell debris of the respective cells was collected and transferred to an ELISA plate, and an absorbance at a wavelength of 405 nm was measured to measure the induction of apoptosis.

[4] = test system: caspase 3; test: Western blotting, activated caspase 3, Panc-1 cells; assay type: cell-based, human; conditions: 3 μM, 12 hours after treatment
Protocol: Specifically, JeKo-1 cells were cultured for 0 (control), 12, 24, and 48 hours in the presence of 0.5 μM of 3EZ,20Ac-ingenol. In addition. Panc-1 cells were cultured for 0 (control), 12, 24, and 48 hours in the presence of 3 μM of 3EZ,20Ac-ingenol. Subsequently, activation of caspase 3 in the respective cells was detected by Western blotting using an anti-activated-caspase antibody (R & D Systems). Furthermore, as a loading control, actin protein was detected using an anti-actin antibody (Sigma).

[5] = test system: p-PTEN (Ser^380/Thr^382/383); test: Western blotting, p-PTEN, BALL-1 cells; assay type: cell-based, human; conditions: 0.5 μM, 3 to 48 hours, entire cell fraction
Protocol: The effect of 3EZ,20Ac-ingenol treatment on PTEN, p-PTEN, and p-Akt of BALL-1 cells was examined. First, BALL-1 cells were cultured for 3, 6, 12, 24, and 48 hours in the presence of 3EZ,20Ac-ingenol at a final concentration of 0.5 μM, and by Western blotting using an anti-PTEN antibody (Santa Cruz), an anti-p-PTEN (Ser^380/Thr^382/383) antibody (Santa Cruz), and an anti-p-Akt (Ser^473) antibody (Cell Signaling Technology), abundances of PTEN, p-PTEN, and p-Akt in the entire cell fraction were analyzed. In addition, cells cultured in the absence of 3EZ,20Ac-ingenol were used as controls.

[6] = test system: PTEN protein; test: Western blotting, PTEN protein, JeKo-1 cells; assay type: cell-based, human; conditions: 0.5 μM
Protocol: Specifically, first, JeKo-1 cells were cultured for 0 (control), 12, 24, and 48 hours in the presence of 0.5 μM of 3EZ,20Ac-ingenol. In addition, Panc-1 cells were cultured for 0 (control), 12, 24, and 48 hours in the presence of 3 μM of 3EZ,20Ac-ingenol.
Subsequently, abundances of PTEN protein in entire cell fractions, nuclear fractions, and cytoplasm fractions of the respective cells were analyzed by Western blotting using an anti-PTEN antibody (Santa Cruz). Furthermore, as a loading control, actin protein was detected using an anti-actin antibody (Sigma).

[7] = test system: cyclin D1; test: Western blotting, cyclin D1, BALL-1 cells; assay type: cell-based, human; conditions: 0.5 μM
Protocol: Specifically, BALL-1 cells were cultured for 12, 24, and 48 hours in the presence of 3EZ,20Ac-ingenol at a final concentration of 0.5 μM, and abundances of cyclin D1 in the nuclear fraction and the cytoplasm fraction were analyzed by Western blotting. In addition, cells cultured in the absence of 3EZ,20Ac-ingenol were used as controls.
Whether transfer of cyclin D1 from the nucleus to the cytoplasm is ATR-dependent and PTEN-dependent was examined using siRNA against ATR and siRNA against PTEN. First, siRNA against ATR (“ON-TARGET Plus Human ATR (545) siRNA-SMARTpool,” GE Dharmacon), siRNA against PTEN (“ON-TARGET Plus Human PTEN (5728) siRNA-SMARTpool,” GE Dharmacon), and control siRNA (“ON-TARGET Plus Nontargeting pool,” GE Dharmacon) were respectively introduced into BALL-1 cells at a final concentration of 50 nM, and incubated for 48 hours.
Subsequently, a cell medium was replaced with a new medium containing 3EZ,20Ac-ingenol at a final concentration of 0.5 μM, and culturing was performed for 24 and 48 hours. Subsequently, abundances of cyclin D1 in the nuclear fraction and the cytoplasm fraction were analyzed by Western blotting using an anti-cyclin-D1 antibody (Santa Cruz).

[8] = test system: topoisomerase; conditions: cited from earlier work

CCCCC/C=C\C=C\C(=O)O[C@H]1C(C)=C[C@]23C(=O)[C@@H](C=C(COC(C)=O)[C@@H](O)[C@]12O)[C@H]1[C@@H](C[C@H]3C)C1(C)C [3EZ,20Ac-ingenol, 3-O-(2′E,4′Z-decadienoyl)-20-O-acetylingenol]
inhibition of proliferation of the BALL-1 cells [1]: a significant level of inhibition of proliferation
amount of fragmented DNA (apoptosis) [2]: noticeably increased the amount of fragmented DNA
DNA fragmentation (apoptosis), onset [3]: DNA fragmentation started 24 hours after the incubation
amount of fragmented DNA (apoptosis) ([3]; 48 hours and 72 hours): the amount of fragmented DNA further increased
activation of caspase 3 [4]: activation of caspase 3 was observed
abundance of p-PTEN [5]: an abundance of p-PTEN increased
abundance of PTEN protein ([6]; cytoplasm fraction, 12 hours to 24 hours): an increase in abundance of PTEN protein in the cytoplasm fraction was observed
abundance of PTEN protein ([6]; cytoplasm fraction, 48 hours): a decrease in abundance of PTEN protein was observed
abundance of PTEN protein ([6]; entire cell fraction, 12 hours until 48 hours): an abundance of PTEN protein increased
abundance of PTEN protein ([6]; nuclear fraction, 12 hours to 24 hours): an increase in abundance of PTEN protein in the nuclear fraction was observed
abundance of cyclin D1 ([7]; cytoplasm fraction, 12 hours and 24 hours): increased
abundance of cyclin D1 ([7]; cytoplasm fraction, after 48 hours): decreased again
abundance of cyclin D1 ([7]; nuclear fraction, 24 hours): a decrease in abundance of cyclin D1 was observed
abundance of cyclin D1 ([7]; siRNA against ATR introduced, cytoplasm fraction, 24 hours): abundances of cyclin D1 in the cytoplasm fractions increased
abundance of cyclin D1 ([7]; siRNA against ATR introduced, cytoplasm fraction, 48 hours): abundances of cyclin D1 in the cytoplasm fractions decreased again
abundance of cyclin D1 ([7]; siRNA against ATR introduced, nuclear fraction, 24 and 48 hours): an abundance of cyclin D1 was large
abundance of cyclin D1 ([7]; siRNA against PTEN introduced, cytoplasm fraction, 24 hours): abundances of cyclin D1 in the cytoplasm fractions increased
abundance of cyclin D1 ([7]; siRNA against PTEN introduced, cytoplasm fraction, 48 hours): abundances of cyclin D1 in the cytoplasm fractions decreased again
abundance of cyclin D1 ([7]; siRNA against PTEN introduced, nuclear fraction, 24 and 48 hours): an abundance of cyclin D1 was large
DNA cleavage [8]: does not cause DNA cleavage
